Assay results taken from patent US8586707B2, “Stapled peptides and method of synthesis” (The Research Foundation of State University of New York, priority 2008, dated 2013).
Where two headings read alike, the source gives them in different places. Values belong to the compound of their own block, whether it stands above or below them. *1 amine or outer side, *2 acyl side, *3 side chain or, on linkers, in order; H or OH if unused. Where a SMILES comes first, the peptide text is derived from it. Bridges are numbered along the chain shown (N, C = ends). [ ]: non-standard residue; d: D form. The star is where a group is joined. X1 = CN(C)c1ccc(N2N=C(C(=O)[*:2])CC2(C)C(=O)[*:1])cc1; X5 = COc1ccc(N2N=C(C(=O)[*:2])CC2(C)C(=O)[*:1])cc1; X3 = COc1ccc(N2N=C(C(=O)[*:2])CC2C(=O)[*:1])cc1; X4 = CC1(C(=O)[*:1])CC(C(=O)[*:2])=NN1c1ccccc1; X2 = COc1ccc(N2N=C(C(=O)*)CC2C(N)=O)cc1; Aib = CC(C)(N)C(=O)O

Columns and labels:
[1] = test system: HeLa cells; experiment: Cellular uptake study by fluorescent microscopy; type: cell-based; settings: 100 μM peptide, 4 hours, 37 °C, DAPI filter
Method: To assess whether the stapled peptides are capable of penetrating cell membrane, we took advantage of the intrinsic fluorescence of the pyrazoline cross-linkers and monitored the stapled peptide cellular uptake by fluorescent microscopy. […] After incubating HeLa cells with 100 μM of peptide 13 for 4 hours in a 37° C. CO2 incubator, the cells were washed twice with PBS before fixing with 4% paraformaldehyde and the subcellular distribution of peptide 13 was examined by fluorescent microscopy.
Cellular Uptake Study: HeLa cells cultured on cover slips were treated with 100 μM of peptide 13 or control peptide 18 in 2% DMSO serum-free DMEM medium for 4 hr in a 37° C., 5% CO2 incubator. In preparation for fixation, medium was aspirated and the cells were washed twice with PBS. The cover slips were treated to a freshly prepared 4% paraformaldehyde/PBS solution for 10˜15 min, washed twice with PBS, and quenched with 50 mM NH4Cl for 10 minutes. After washing with PBS twice, the cover-slip was flipped and placed on top of microscopy glass containing in situ-frame and PBS buffer to make a sealed sample chamber. The images were acquired on a Zeiss Axioimager motorized fluorescence microscope. DAPI filter (ex 365 nm, em 445±25 nm) was used in acquiring fluorescence images. All image acquisitions and processing were performed under identical conditions.

[2] = Far-UV circular dichroism, percent helicity; type: physicochemical; settings: CD in trifluoroethanol at 25 °C, from mean residue ellipticity at 208 nm
Method: (§1) To examine the stapling effect on peptide secondary structure, we measured the far-UV circular dichroism (CD) spectra of the stapled peptides in trifluoroethanol (TFE) at 25° C. Because the tetrazoles in the linear peptides are labile to the CD scanning light (short wavelength UV light), we prepared a photo stable control peptide, Ac-Val-Lys(Ac)-Leu-Aib-Val-Lys(Ac)-Leu-NH2 (SEQ ID NO:1) (17; Ac=acetyl; Aib=amino isobutyric acid) as a linear surrogate. […] The percent helicity of 17 was determined to be 53% on the basis of mean residue ellipticity (MRE) at 208 nm. […] To further characterize the stability derived from the stapling, we measured thermal melting point (Tm) of the most helical peptide 16 by following its ellipticity over a wide temperature range (20-85° C.), and compared it to that of the linear photo stable peptide 17 (FIG. 5 (b)).
Circular Dichroism: CD spectra were obtained using 1-mm pathlength cuvettes on a JASCO J-715 instrument at 25° C. The instrument scan range was set at 190 to 250 nm. The scan rate was set at 50 nm/min, the response time was set at 2 sec, and the bandwidth was set at 1 nm. The spectra were the averages of two scans. For the measurement of percent helicity, peptides were dissolved in 100% trifluoroethanol (TFE); for the Tm determination, 20% TFE/H2O were used as the solvent. The percent helicity was calculated by using the following equation: […]

[3] = the molecule shown is the open-chain precursor, other bond, hv 302 nm (tetrazole-alkene photocycloaddition)
[4] = the molecule shown is the open-chain precursor, other bond, 28-membered ring, hv 302 nm, 10 min, 0.15 mM
[5] = Thermal melting point by CD ellipticity over 20-85 °C; type: physicochemical; settings: for melting temperature (Tm): 100 μM peptide in 20% TFE/H2O, 20-85 °C
Method: as §1
Circular Dichroism: CD spectra were obtained using 1-mm pathlength cuvettes on a JASCO J-715 instrument at 25° C. The instrument scan range was set at 190 to 250 nm. The scan rate was set at 50 nm/min, the response time was set at 2 sec, and the bandwidth was set at 1 nm. The spectra were the averages of two scans. For the measurement of percent helicity, peptides were dissolved in 100% trifluoroethanol (TFE); for the Tm determination, 20% TFE/H2O were used as the solvent. The percent helicity was calculated by using the following equation:
[formula] The melting temperature (Tm) was determined by following a reported procedure. Briefly, a sample of 100 μM peptide in 20% TFE/H2O in an 1-mm pathlength cuvette was scanned at various temperatures from 20° C. to 85° C. (5-degree intervals) with an equilibration time of 3 min and a heating rate of 60° C./hr. The θ222 MRE data was normalized by setting the maximum θ222 MRE to 100% and the minimum θ222 MRE to 0.

[6] = 28-membered ring, MeCN, 0.15 mM

Compound: COc1ccc(N2N=C(C(=O)NCCCC[C@H](NC(=O)[C@@H](NC(=O)C(C)(C)NC(=O)[C@H](CC(C)C)NC(=O)[C@H](CCCCNC(C)=O)NC(=O)[C@@H](NC(C)=O)C(C)C)C(C)C)C(=O)N[C@@H](CC(C)C)C(N)=O)CC2C(N)=O)cc1 (stereo partly drawn) [Peptide 18, Ac-Val-Lys(Pyr)-Leu-Aib-Val-Lys(Ac)-Leu-NH2, reference compound] (Ac-VK(Ac)L[Aib]VK(X2)L-NH2)
cellular uptake (intracellular fluorescence) [1]: did not yield cellular fluorescent pattern

percent helicity [2]: 51%
Compound: COc1ccc(N2N=C3CC2(C)C(=O)NCCCC[C@H](NC(=O)[C@@H](NC(C)=O)C(C)C)C(=O)N[C@@H](CC(C)C)C(=O)NC(C)(C)C(=O)N[C@@H](C(C)C)C(=O)N[C@H](C(=O)N[C@@H](CC(C)C)C(N)=O)CCCCNC3=O)cc1 (some centres unmarked) [Peptide 14] (Ac-VKL[Aib]VKL-NH2; linker 2-6 via X5)

Compound: Ac-Val-Lys(acryloyl)-Leu-Aib-Val-Lys(2-(4-dimethylaminophenyl)-2H-tetrazole-5-carbonyl)-Leu-NH2?
ring closure, yield after HPLC [3, 6]: 64%

Compound: Ac-Val-Lys(methacryloyl)-Leu-Aib-Val-Lys(2-(4-dimethylaminophenyl)-2H-tetrazole-5-carbonyl)-Leu-NH2?
ring closure, conversion ([4]; DCM): 43%
ring closure, conversion ([4]; EtOAc): 86%
ring closure, conversion ([4]; EtOH): 92%
ring closure, conversion ([4]; MeCN): 87%
ring closure, conversion ([4]; iPrOH): 88%
ring closure, yield after HPLC [3, 6]: 94%

Compound: Ac-Val-Lys(methacryloyl)-Leu-Aib-Val-Lys(2-phenyl-2H-tetrazole-5-carbonyl)-Leu-NH2?
ring closure, yield after HPLC [3, 6]: 41%

Compound: COc1ccc(N2N=C3CC2C(=O)NCCCC[C@H](NC(=O)[C@@H](NC(C)=O)C(C)C)C(=O)N[C@@H](CC(C)C)C(=O)NC(C)(C)C(=O)N[C@@H](C(C)C)C(=O)N[C@H](C(=O)N[C@@H](CC(C)C)C(N)=O)CCCCNC3=O)cc1 (some centres unmarked) [Peptide 13] (Ac-VKL[Aib]VKL-NH2; linker 2-6 via X3)
cellular uptake (intracellular fluorescence) [1]: punctuated fluorescence was observed in discrete cytoplasmic regions within HeLa cells

melting temperature (Tm) [5]: 63 °C
increase in Tm versus linear peptide 17 ([5]; stapled 16 vs linear 17): 15 °C
percent helicity [2]: 64%
Compound: CC(=O)N[C@H](C(=O)N[C@H]1CCCCNC(=O)C2(C)CC(=NN2c2ccc(N(C)C)cc2)C(=O)NCCCC[C@@H](C(=O)N[C@@H](CC(C)C)C(N)=O)NC(=O)[C@H](C(C)C)NC(=O)C(C)(C)NC(=O)[C@H](CC(C)C)NC1=O)C(C)C (some centres unmarked) [Peptide 16] (Ac-VKL[Aib]VKL-NH2; linker 2-6 via X1)

Compound: Ac-Leu-Thr-Phe-Lys(methacryloyl)-His-Tyr-Trp-Ala-Gln-Leu-Lys(N-(4-methoxy)phenyl-tetrazole)-Ser-NH2
ring closure, yield after HPLC [3]: 74%

melting temperature (Tm) [5]: 48 °C
percent helicity [2]: 53%
Compound: CC(=O)NCCCC[C@H](NC(=O)[C@@H](NC(C)=O)C(C)C)C(=O)N[C@@H](CC(C)C)C(=O)NC(C)(C)C(=O)N[C@H](C(=O)N[C@@H](CCCCNC(C)=O)C(=O)N[C@@H](CC(C)C)C(N)=O)C(C)C [Peptide 17, Ac-Val-Lys(Ac)-Leu-Aib-Val-Lys(Ac)-Leu-NH2, reference compound] (Ac-VK(Ac)L[Aib]VK(Ac)L-NH2)

Compound: Ac-Val-Lys(methacryloyl)-Leu-Aib-Val-Lys(2-(4-methoxyphenyl)-2H-tetrazole-5-carbonyl)-Leu-NH2?
ring closure, yield after HPLC [3, 6]: 53%

Compound: Ac-Val-Orn(methacryloyl)-Leu-Aib-Val-Orn(2-phenyl-2H-tetrazole-5-carbonyl)-Leu-NH2?
ring closure, yield after HPLC ([3]; 26-membered ring, MeCN, 0.15 mM): 15%

percent helicity [2]: 51%
Compound: CC(=O)N[C@H](C(=O)N[C@H]1CCCCNC(=O)C2(C)CC(=NN2c2ccccc2)C(=O)NCCCC[C@@H](C(=O)N[C@@H](CC(C)C)C(N)=O)NC(=O)[C@H](C(C)C)NC(=O)C(C)(C)NC(=O)[C@H](CC(C)C)NC1=O)C(C)C (some centres unmarked) [Peptide 11] (Ac-VKL[Aib]VKL-NH2; linker 2-6 via X4)

Compound: Ac-Val-Orn(methacryloyl)-Leu-Aib-Val-Orn(4-(2-phenyl-2H-tetrazol-5-yl)benzoyl)-Leu-NH2?
ring closure, yield after HPLC ([3]; 30-membered ring, MeCN, 0.15 mM): 15%

Compound: Ac-Val-Lys(acryloyl)-Leu-Aib-Val-Lys(2-(4-methoxyphenyl)-2H-tetrazole-5-carbonyl)-Leu-NH2?
ring closure, yield after HPLC [3, 6]: 64%

Compound: Ac-Val-Lys(methacryloyl)-Leu-Aib-Val-Lys(4-(2-phenyl-2H-tetrazol-5-yl)benzoyl)-Leu-NH2?
ring closure, yield after HPLC ([3]; 32-membered ring, MeCN, 0.15 mM): 38%
